These results are taken from patent publication EP0246774A1, “Chemical compounds” (SMITH KLINE & FRENCH LABORATORIES LIMITED, priority 1986, dated 1987).

In one test the test system is histamine stimulated gastric acid secretion. The test can be described thus: Rat lumen perfused stomach, histamine stimulated gastric acid secretion (modified Ghosh and Schild procedure). Particulars: intravenous administration. The class given is in vivo. The text has this: A. Rat : Lumen perfused stomach (histamine stimulated gastric acid secretion).
Using a modification of the procedure described by Ghosh and Schild (Br. J. Pharmacology, 13, 54, 1958), ED50 values after intravenous administration were obtained as follows: […]
On to `COc1cc2[nH]c([S+]([O-])Cc3nccc(N4CCOCC4)c3F)nc2cc1C` (stereo not shown) [Example 14, 5-methyl-6-methoxy-2-(4-morpholino-3-fluoro-2-pyridylmethylsulphinyl)-(lH)-benzimidazole], for which the 50% effect level (ED50) was put at a dose of 1.51 µmol/kg.

With `COc1ccc2[nH]c([S+]([O-])Cc3nccc(N4CCOCC4)c3F)nc2c1` (stereo not shown) [Example 2, 5-methoxy-2-(4-morpholino-3-fluoro-2-pyridylmethylsulphinyl)-(lH)-benzimidazole], it took a dose of 0.7 µmol/kg to reach the 50% effect level (ED50).

Staying with this test, now noted: intravenous administration, dose not given.
With `COc1cc2nc([S+]([O-])Cc3nccc(N(C)C)c3F)[nH]c2cc1OC` (stereo not shown) [Example 16, 5,6-dimethoxy-2-(4-dimethylamino-3-fluoro-2-pyridylmethylsulphinyl)-(lH)-benzimidazole], the “% inhibition at µ/kg” value came to 46%.

On to `COc1ccc2[nH]c([S+]([O-])Cc3nccc(N(C)C)c3F)nc2c1` (stereo not shown) [Example 6, 5-methoxy-2-(4-dimethylamino-3-fluoro-2-pyridylmethylsulphinyl)-(1H)-benzimidazole], for which the “% inhibition at µ/kg” value amounted to 26%.

Take `COc1cc2nc([S+]([O-])Cc3nccc(N4CCOCC4)c3F)[nH]c2cc1OC` (stereo not shown) [Example 12, 5,6-dimethoxy-2-(4-morpholino-3-fluoro-2-pyridylmethylsulphinvl)-(lH)-benzimidazole]: the “% inhibition at µ/kg” value came out at 33%.

On to `COc1ccc2[nH]c([S+]([O-])Cc3cc(N4CCOCC4)c(F)cn3)nc2c1` (stereo not shown) [Example 4, 5-methoxy-2-(4-morpholino-5-fluoro-2-pyridvlmethylsulphinyl)-(lH)-benzimidazole], for which the “% inhibition at µ/kg” value was found to be 51%.

For the compound `COc1ccc2[nH]c([S+]([O-])Cc3cc(N(C)C)c(F)cn3)nc2c1` (stereo not shown) [Example 8, 5-methoxy-2-(4-dimethylamino-5-fluoro-2-pyridylmethylsulphinyl)-(1H)-benzimidazole], the “% inhibition at µ/kg” value was found to be 37%.
